Experimental data published in US20150148551A1, “GENISTEIN FOR REDUCING LEVELS OF STORAGE COMPOUNDS IN THE TREATMENT AND/OR PREVENTION OF LYSOSOMAL STORAGE DISEASES (LSDS)” (3G THERAPEUTICS, INC., priority 2012, published 2015).

How the values were obtained:
CTSA = assay: DNA microarray, CTSA expression in fibroblasts exposed to genistein; type: cell-based, human; details: for CTSA fold change Average: 48 h vs DMSO
Description: (§1) The experiments were conducted to characterise the transcriptomic profile of human fibroblast cells exposed to genistein, and in particular to determine the expression of genes encoding lysosomal enzymes involved in metabolism (i.e. synthesis and degradation) of organic substances. The absence or deficiency of these enzymes' activity is responsible for occurrence of various lysosomal storage diseases (LSD) (including MPS). The tested hypothesis assumed that genistein influences the expression of many genes, among which there are genes coding for enzymes required in metabolism of compounds, which are pathologically stored in LSD. The results provide important information regarding genistein action on the molecular level within the range of gene expression modulation by this substance. The experiment was conducted in biological quintuplicates. Human dermal fibroblasts (HDFa) were exposed in vitro for 1, 24 or 48 hours to: 30, 60 or 100 μM of genistein; 0.05% DMSO (K1); or were untreated (control cells) (K2), and total RNA was isolated and analysed.
(§2) Fibroblast cells were grown in Dulbecco (DMEM) medium supplemented with 10% fetal bovine serum (FBS) with the addition of 1% antibiotics and anti-fungal agents at 37° C. in humidified atmosphere of 5% CO2, until the required confluency was obtained.
(§3) To determine the effect of tested compound on the transcriptom of the fibroblast cells, the growth medium was replaced with fresh medium, either non-supplemented (0.05% DMSO), or containing genistein (30, 60 or 100 μM, in 0.05% DMSO). The exposure was done for 1, 24 or 48 hours.
(§4) Total RNA was isolated from fibroblasts using High Pure RNA Isolation Kit according to the protocol and then it was quantitatively evaluated using Quant-It™ RiboGreen® Assay Kit.
(§5) Biotinylated cRNA was prepared using Ambion Total PrepAmp Kit for Illumina arrays.
(§6) Standard hybridization and quantitative image analysis procedures—Illumina hybridization protocol and Illumina scanning protocol, were used.
(§7) Processing of the results was done during data definition, including: background correction (using background subtraction method), normalization (using quantile normalization algorithm with Illumina GenomeStudio software package: gene expression module version 1.9.0) and summarization (using method, which sums the values of signal intensities from a set of probes).

CTSK = assay: DNA microarray, CTSK expression in fibroblasts exposed to genistein; type: cell-based, human; details: for CTSK fold change Average: 48 h vs DMSO
Description: as §1, §2, §3, §4, §5, §6, §7

CTSO = assay: DNA microarray, CTSO expression in fibroblasts exposed to genistein; type: cell-based, human; details: for CTSO fold change Average: 48 h vs DMSO
Description: as §1, §2, §3, §4, §5, §6, §7

LGMN = assay: DNA microarray, LGMN expression in fibroblasts exposed to genistein; type: cell-based, human; details: for LGMN fold change Average: 48 h vs DMSO
Description: as §1, §2, §3, §4, §5, §6, §7

ACP2 = assay: DNA microarray, ACP2 expression in fibroblasts exposed to genistein; type: cell-based, human; details: for ACP2 fold change Average: 48 h vs DMSO
Description: as §1, §2, §3, §4, §5, §6, §7

ACP5 = assay: DNA microarray, ACP5 expression in fibroblasts exposed to genistein; type: cell-based, human; details: for ACP5 fold change Average: 48 h vs DMSO
Description: as §1, §2, §3, §4, §5, §6, §7

FVT1 = assay: DNA microarray, FVT1 expression in fibroblasts exposed to genistein; type: cell-based, human; details: for FVT1 fold change Average: 48 h vs DMSO
Description: as §1, §2, §3, §4, §5, §6, §7

CD164 = assay: DNA microarray, CD164 expression in fibroblasts exposed to genistein; type: cell-based, human; details: for CD164 fold change Average: 48 h vs DMSO
Description: as §1, §2, §3, §4, §5, §6, §7

[1] = humans and animals; cited from earlier work

Structure (SMILES): O=c1c(-c2ccc(O)cc2)coc2cc(O)cc(O)c12 [genistein, 4′,5,7-trihydroxy-3-phenylchromen-4-one]
- CTSA fold change Average (CTSA; 30 μM): 1.3019 fold change
- CTSA fold change Average 1h60/1hK1 (CTSA; 60 μM, 1 h vs 0.05% DMSO): 0.9816 fold change
- CTSA fold change Average (CTSA; 60 μM): 1.637 fold change
- CTSA fold change Average 1h100/1hK1 (CTSA; 100 μM, 1 h vs 0.05% DMSO): 0.9643 fold change
- CTSA fold change Average (CTSA; 100 μM): 1.571 fold change
- CTSK fold change Average 1h30/1hK1 (CTSK; 30 μM, 1 h vs 0.05% DMSO): 0.9778 fold change
- CTSK fold change Average (CTSK; 30 μM): 1.2621 fold change
- CTSK fold change Average 1h60/1hK1 (CTSK; 60 μM, 1 h vs 0.05% DMSO): 1.108 fold change
- CTSK fold change Average (CTSK; 60 μM): 1.387 fold change
- CTSK fold change Average 1h100/1hK1 (CTSK; 100 μM, 1 h vs 0.05% DMSO): 0.9868 fold change
- CTSK fold change Average (CTSK; 100 μM): 1.541 fold change
- CTSO fold change Average 1h30/1hK1 (CTSO; 30 μM, 1 h vs 0.05% DMSO): 0.9973 fold change
- CTSO fold change Average (CTSO; 30 μM): 1.2507 fold change
- CTSO fold change Average 1h60/1hK1 (CTSO; 60 μM, 1 h vs 0.05% DMSO): 1 fold change
- CTSO fold change Average (CTSO; 60 μM): 1.276 fold change
- CTSO fold change Average 1h100/1hK1 (CTSO; 100 μM, 1 h vs 0.05% DMSO): 1.07 fold change
- CTSO fold change Average (CTSO; 100 μM): 1.471 fold change
- LGMN fold change Average 1h30/1hK1 (LGMN; 30 μM, 1 h vs 0.05% DMSO): 0.9392 fold change
- LGMN fold change Average (LGMN; 30 μM): 1.3309 fold change
- LGMN fold change Average 1h60/1hK1 (LGMN; 60 μM, 1 h vs 0.05% DMSO): 0.9963 fold change
- LGMN fold change Average (LGMN; 60 μM): 1.61 fold change
- LGMN fold change Average 1h100/1hK1 (LGMN; 100 μM, 1 h vs 0.05% DMSO): 0.8978 fold change
- LGMN fold change Average (LGMN; 100 μM): 1.833 fold change
- ACP2 fold change Average 1h30/1hK1 (ACP2; 30 μM, 1 h vs 0.05% DMSO): 1.0116 fold change
- ACP2 fold change Average (ACP2; 30 μM): 1.0451 fold change
- ACP2 fold change Average 1h60/1hK1 (ACP2; 60 μM, 1 h vs 0.05% DMSO): 0.95 fold change
- ACP2 fold change Average (ACP2; 60 μM): 1.063 fold change
- ACP2 fold change Average 1h100/1hK1 (ACP2; 100 μM, 1 h vs 0.05% DMSO): 0.9804 fold change
- ACP2 fold change Average (ACP2; 100 μM): 1.147 fold change
- ACP5 fold change Average 1h30/1hK1 (ACP5; 30 μM, 1 h vs 0.05% DMSO): 0.9865 fold change
- ACP5 fold change Average (ACP5; 30 μM): 1.6259 fold change
- ACP5 fold change Average 1h60/1hK1 (ACP5; 60 μM, 1 h vs 0.05% DMSO): 1.066 fold change
- ACP5 fold change Average (ACP5; 60 μM): 1.7507 fold change
- ACP5 fold change Average 1h100/1hK1 (ACP5; 100 μM, 1 h vs 0.05% DMSO): 1.141 fold change
- ACP5 fold change Average (ACP5; 100 μM): 1.763 fold change
- FVT1 fold change Average 1h30/1hK1 (FVT1; 30 μM, 1 h vs 0.05% DMSO): 1.0953 fold change
- FVT1 fold change Average (FVT1; 30 μM): 1.2441 fold change
- FVT1 fold change Average 1h60/1hK1 (FVT1; 60 μM, 1 h vs 0.05% DMSO): 1.137 fold change
- FVT1 fold change Average (FVT1; 60 μM): 1.603 fold change
- FVT1 fold change Average 1h100/1hK1 (FVT1; 100 μM, 1 h vs 0.05% DMSO): 1.035 fold change
- FVT1 fold change Average (FVT1; 100 μM): 1.422 fold change
- CD164 fold change Average 1h30/1hK1 (CD164; 30 μM, 1 h vs 0.05% DMSO): 1.0714 fold change
- CD164 fold change Average (CD164; 30 μM): 0.9618 fold change
- CD164 fold change Average 1h60/1hK1 (CD164; 60 μM, 1 h vs 0.05% DMSO): 1.49 fold change
- CD164 fold change Average 1h100/1hK1 (CD164; 100 μM, 1 h vs 0.05% DMSO): 1.002 fold change
- CD164 fold change Average (CD164; 100 μM): 1.282 fold change
- tolerability [1]: well-tolerated
